Experimental data taken from patent publication US6897227B2, “Prodrugs of proton pump inhibitors” (Winston Pharmaceuticals, Inc., priority 2002, dated 2005).

Tests used:
[1] = Stability in plasma at 37° C. (gradient HPLC-UV), rat plasma; assay type: in vitro ADME
Procedure: (§1) Exemplary test compounds (prodrugs) of the invention were incubated in plasma at 37° C., and the concentration of the compounds and also of the corresponding proton pump inhibitor compounds (PPI) were determined by a gradient HPLC-UV method. Although the half-lives of test compounds in plasma varies depending on their structure, nevertheless it is apparent that in plasma the compounds of the invention are converted into the corresponding proton pump inhibitor at a rate faster than the hydrolysis rate of the compound at neutral or near neutral pH.

gastric acid secretion = assay: Inhibition of gastric acid secretion in rat, intravenous administration; assay type: in vivo
Procedure: (§2) 3 hours after administration the abdomen of the rat was incised and the pylorus was ligated under light ether anethesia. Histamine (30 mg/kg) and carbachol (30 μg/kg) were subcutaneously injected for acid stimulation. Immediately the abdomen was closed. Two hours later, the esophagus was ligated and the stomach was removed. The gastric juice was collected and acid output was quantified by titration using 0.1 N NaOH solution. As a control experiment, 1 ml of 50 mM phosphate buffer (pH 7.4) solution was orally administrated without any prodrug or proton pump inhibitory drug. Acid output was quantified by same method as described above, showing maximum histamine and carbachol-stimulated gastric acid secretion. Percentage inhibition was calculated from the fractional responses elicited by the test compound and a control experiment.
Inhibition of gastric acid secretion after intravenous administration of compounds of the invention was also examined. Lansoprazole sodium salt (20 mg) was dissolved in 40% hydroxypropyl-beta-cyclodextrin. The compounds of the invention used in this experiment were dissolved in phosphate buffered saline solution of pH 7.4. Each compound was injected intravenously at a dose of 5 μmole/kg or 10 μmole/kg (μmole per kg body weight of rat) as indicated in Table 4 below. Between 2 to 4 hours after injection gastric juice was collected, and the percentage of inhibition was determined as described above.

[2] = Stability in Britton Robinson buffers (hydrolysis of prodrug to PPI, HPLC); conditions: Britton Robinson buffer, pH 7
Procedure: The stability of Compounds 1, 2, 3, 4 and 5 of the invention in aqueous solution (0.1 mg/mL) was investigated in Britton Robinson buffers of pH 3, pH 7, and pH 9, respectively. A solution of 0.1 mg/mL concentration of each compound in each buffer was prepared and the solutions were stored at 37° C. for 1 h and then the concentrations of test compounds were determined by HPLC.

[3] = Stability in plasma at 37° C. (gradient HPLC-UV), human plasma; assay type: in vitro ADME
Procedure: as §1

[4] = Solubility in phosphate buffered saline buffer of pH 7.4 at 37° C.; assay type: physicochemical; conditions: aqueous buffer, sodium salts, phosphate buffered saline buffer pH 7.4, read-out: Solubility at 37° C. Conc.
Procedure: The solubility of the sodium salts of certain exemplary compounds of the present invention in a phosphate buffered saline buffer of pH 7.4 (50 mM sodium phosphate, 10 mM KCl, 0.1 M NaCl) and also in a more acidic Britton Robinson buffer of pH 3 (40 mM acetic acid, 40 mM phosphoric acid, 40 mM boric acid, 36 mM NaOH, and 19.6 mg/ml KCl) was also evaluated. […] The tested compounds were much less soluble little in the Britton Robinson buffer of pH 3, but still more soluble than the prior art compounds (a) through (f). This is understandable in view of the fact that in the buffer of pH 7.4 the compounds of the invention form a sodium salt, whereas in the buffer of pH 3 the compounds are less soluble free carboxylic acids. Thus, a solution of a sodium or other pharmaceutically acceptable salt of the compounds of the invention, or stated in an other way the compounds of the invention at pH 7 or above are highly soluble and therefore suitable for administration by intravenous injection.

[5] = tested on: histamine and carbachol-stimulated gastric acid secretion; assay: Inhibition of gastric acid secretion of the conscious male rat, oral administration; assay type: in vivo, rat (Sprague-Dawley); conditions: sodium salt, read-out: % inhibition of gastric acid secretion between 3-5 hours after administration; for inhibition in vivo at 20 µmol/kg: 20 μmole/kg; for inhibition in vivo at 40 µmol/kg: 40 μmole/kg; for inhibition in vivo at 10 µmol/kg: 10 μmole/kg
Procedure: Male rats (the Sprague-Dawley strain) were used in this experiment. OMEPRAZOLE sodium salt or LANSOPRAZOLE sodium salt (20 mg) was suspended in 10 ml of 0.1 N NaHCO3. 40 mg of each of the sodium salts of Compound 1, Compound 2, Compound 3, Compound 4, Compound 6 Compound 9, Compound 12, mixture (1:1) of Compound 16 and 17, mixture (1:1) of Compound 18 and 19, mixture (1:1) of Compound 20 and 21, mixture (1:1) of Compound 22 and 23, Compound 27, mixture (1:1) of Compound 34 and 35, and Compound 36 were dissolved in 10 ml of 50 mM sodium phosphate buffer, pH 7.4. The doses administered to the rats were as follows (μmole per kg body weight of the rat): OMEPRAZOLE (10 μmole/kg), LANSOPRAZOLE (10 μmole/kg), Compound 120 μmole/kg, Compound 2 40 μmole/kg, Compound 320 μmole/kg, Compound 420 μmole/kg, Compound 620 μmole/kg, Compound 940 μmole/kg, Compound 1240 μmole/kg, mixture (1:1) of Compound 16 and 17 40 μmole/kg, mixture (1:1) of Compound 18 and 19 40 μmole/kg, mixture (1:1) of Compound 20 and 21 40 μmole/kg, mixture (1:1) of Compound 22 and 23 40 μmole/kg, Compound 27 40 μmole/kg, mixture (1:1) of Compound 34 and 35 40 μmole/kg, and Compound 3640 μmole/kg. These drug solutions were orally administered.
as §2

[6] = Aqueous solubility (water / distilled water); assay type: physicochemical; conditions: free carboxylic acids
Description: A further significant advantage of the proton pump inhibitor prodrugs of the present invention relative to the proton pump inhibitor prodrugs disclosed in U.S. Pat. No. 6,093,734, 6,559,167 and PCT Publication WO 00109498 and to all other prior art is their increased solubility.

In the case of `Cc1c(OCC(F)(F)F)ccnc1C[S+]([O-])c1nc2ccccc2n1S(=O)(=O)c1cccc(C(=O)O)c1` (centres unmarked) [Compound 1, 3-{2-[3-Methyl-4-(2,2,2-trifluoro-ethoxy)-pyridin-2-ylmethanesulfinyl]-benzimidazole-1-sulfonyl}benzoic acid], the half-life [1] is reported as 14 min, the “% inhibition of gastric acid secretion between 2-4 hours after i.v. administration” value (shortened to “% inhibition”) (gastric acid secretion; 5 μmole/kg) is reported as 83.7 ± 10.1% and the “% inhibition” value (gastric acid secretion; 10 μmole/kg) is reported as 90.6 ± 2.1%. It also gave a half-life at 0.1 mg/mL [2] greater than 50 h, a half-life [3] of 12 min and a solubility [4] greater than 30 mg/mL. The inhibition in vivo at 20 µmol/kg [5] was 81.9 ± 7.1%.
In the case of `COc1ccc(S(=O)(=O)n2c([S+]([O-])Cc3nccc(OCC(F)(F)F)c3C)nc3ccccc32)cc1C(=O)[O-].[Na+]` (centres unmarked) [Compound 3, 2-methoxy-5-{2-[3-methyl-4-(2,2,2-trifluoro-ethoxy)-pyridin-2-ylmethanesulfinyl]benzimidazole-1-sulfonyl}-benzoic acid sodium salt], the half-life [1] is reported as 81 min, the half-life at 0.1 mg/mL [2] is reported as greater than 50 h and the half-life [3] is reported as 10 min. It also gave a solubility [4] greater than 50 mg/mL and an inhibition in vivo at 20 µmol/kg [5] of 84.9 ± 13.6%.
Molecule `CCC(Oc1ccc(S(=O)(=O)n2c([S+]([O-])Cc3nccc(OCC(F)(F)F)c3C)nc3ccccc32)cc1)C(=O)[O-].[Na+]` (centres unmarked) [Compound 4 Na salt, 2-(4-{2-[3-methyl-4-(2,2,2-trifluoro-ethoxy)-pyridin-2-ylmethanesulfinyl]-benzimidazole-1-sulfonyl}phenoxy)butyric acid sodium salt] has a half-life [1] of 98 min and a half-life [3] of 60 min.
`Cc1cc(OCC(=O)[O-])cc(C)c1S(=O)(=O)n1c([S+]([O-])Cc2nccc(OCC(F)(F)F)c2C)nc2ccccc21.[Na+]` (centres unmarked) [Compound 5] gave a half-life [1] of 31 min, a half-life at 0.1 mg/mL [2] greater than 50 h and a solubility [4] greater than 30 mg/mL.
`Cc1cc(OCC(=O)NCCCCCC(=O)[O-])cc(C)c1S(=O)(=O)n1c([S+]([O-])Cc2nccc(OCC(F)(F)F)c2C)nc2ccccc21.[Na+]` (centres unmarked) [Compound 6, 6-[2-(3,5-Dimethyl-4-{2-[3-methyl-4-(2,2,2-trifluoro-ethoxy)-pyridin-2-ylmethanesulfinyl]-benzimidazole-1-sulfonyl}-phenoxy)acetylamino]hexanoic acid sodium salt] showed a half-life [1] of 52 min, a half-life [3] of 60 min and an inhibition in vivo at 20 µmol/kg [5] of 53.5 ± 18.3%.
Work on `COCCCOc1ccnc(C[S+]([O-])c2nc3ccccc3n2S(=O)(=O)c2ccc(OCC(=O)[O-])cc2)c1C.[Na+]` (centres unmarked) [Compound 8, (4-{2-[4-(3-Methoxy-propoxy)-3-methyl-pyridin-2-ylmethanesulfinyl]-benzimidazole-1-sulfonyl}-phenoxy)-acetic acid sodium salt] yielded a solubility [4] greater than 30 mg/mL.
Molecule `COc1ccc2c(c1)nc([S+]([O-])Cc1ncc(C)c(OC)c1C)n2S(=O)(=O)c1ccc(OCC(=O)[O-])cc1.[Na+]` (centres unmarked) [Compound 9, {4-[5-methoxy-2-(4-methoxy-3,5-dimethyl-pyridin-2-ylmethanesulfinyl)-benzimidazole-1-sulfonyl]-phenoxy}-acetic acid sodium salt] has a solubility [6] greater than 0.1 mg/mL, a solubility [4] greater than 30 mg/mL and an inhibition in vivo at 40 µmol/kg [5] of 74.4 ± 25.1%.
For `COc1ccc2nc([S+]([O-])Cc3ncc(C)c(OC)c3C)n(S(=O)(=O)c3ccc(OCC(=O)[O-])cc3)c2c1.[Na+]` (centres unmarked) [Compound 10, {4-[6-methoxy-2-(4-methoxy-3,5-dimethyl-pyridin-2-ylmethanesulfinyl)-benzimidazole-1-sulfonyl]-phenoxy}-acetic acid sodium salt], the “% inhibition” value (gastric acid secretion; 5 μmole/kg) was 18.3 ± 11.9%.
Work on `Cc1c(OCC(F)(F)F)ccnc1C[S+]([O-])c1nc2ccccc2n1S(=O)(=O)c1ccc(OCC(=O)NCCCC(=O)[O-])cc1C(C)C.[Na+]` (centres unmarked) [Compound 11] yielded a half-life [1] of 53 min and a half-life [3] of 14 min.
In the case of `Cc1c(OCC(F)(F)F)ccnc1C[S+]([O-])c1nc2ccccc2n1S(=O)(=O)c1ccc(OCC(=O)[O-])c(OCC(=O)[O-])c1.[Na+].[Na+]` (centres unmarked) [Compound 12, (2-Carboxymethoxy-4-{2-[3-methyl-4-(2,2,2-trifluoro-ethoxy)-pyridin-2-ylmethanesulfinyl]-benzimidazole-1-sulfonyl}-phenoxy)-acetic acid di-sodium salt], the half-life [1] is reported as 78 min, the “% inhibition” value (gastric acid secretion; 5 μmole/kg) is reported as 89.2 ± 6.8% and the “% inhibition” value (gastric acid secretion; 10 μmole/kg) is reported as 92.6 ± 2.9%. For the same molecule, the half-life [3] was 51 min, the solubility [4] was greater than 50 mg/mL and the inhibition in vivo at 40 µmol/kg [5] was 82.8 ± 9.6%.
For `Cc1ccc(C(=O)[O-])cc1S(=O)(=O)n1c([S+]([O-])Cc2nccc(OCC(F)(F)F)c2C)nc2ccccc21.[Na+]` (centres unmarked) [Compound 27, 3-{2-[3-Methyl-4-(2,2,2-trifluoro-ethoxy)-pyridin-2-yl-methanesulfinyl]-benzimidazole-1-sulfonyl}-4-methylbenzoic acid sodium salt], the half-life [1] was 14 min and the inhibition in vivo at 40 µmol/kg [5] was 96.7 ± 1.3%.
In the case of `COc1ccc(S(=O)(=O)n2c([S+]([O-])Cc3nccc(OCC(F)(F)F)c3C)nc3ccccc32)cc1CCC(=O)[O-].[Na+]` (centres unmarked) [Compound 36, 3-[2-Methoxy-5-{2-(3-methyl-4-(2,2,2-trifluoroethoxy)pyridin-2-yl-methanesulfinyl)-benzimidazole-1-sulfonyl}phenyl]propionic acid sodium salt], the half-life [1] is reported as 19 min and the inhibition in vivo at 40 µmol/kg [5] is reported as 89.8 ± 6.8%.
`Cc1cc(OCC(=O)[O-])cc(C(C)C)c1S(=O)(=O)n1c([S+]([O-])Cc2nccc(OCC(F)(F)F)c2C)nc2ccccc21.[Na+]` (centres unmarked) [Compound 39, 4-[2-{3-Methyl-4-(2,2,2-trifluoroethoxy)pyridin-2-yl-methanesulfinyl}-benzimidazole-1-sulfonyl]-3-isopropyl-5-methylphenoxyacetic acid sodium salt] showed a half-life [1] of 317 min.
With `Cc1c(OCC(F)(F)F)ccnc1C[S+]([O-])c1nc2ccccc2[nH]1` (centres unmarked) [LANSOPRAZOLE, 2-[3-methyl-4-(2,2,2-trifluoroethoxy)pyridin-2-yl-methanesulfinyl]-1H-benzimidazole, reference compound] the “% inhibition” value (gastric acid secretion; 5 μmole/kg) was 91.5 ± 5.0% and the inhibition in vivo at 10 µmol/kg [5] was 67.6 ± 14.7%.
`COc1ccc2[nH]c([S+]([O-])Cc3ncc(C)c(OC)c3C)nc2c1` (centres unmarked) [OMEPRAZOLE, 5-methoxy-2-(4-methoxy-3,5-dimethyl-pyridin-2-yl-methanesulfinyl)-1H-benzimidazole, reference compound] gave an inhibition in vivo at 10 µmol/kg [5] of 54.6 ± 10.4%.
